Reference: patent US6335019B1, “Methods for treating sensitivity to protein allergen using peptides which include a T cell epitope recognized by a T cell receptor specific for the protein allergen” (Immulogic Pharmaceutical Corp., priority 1989, dated 2002)

Columns and labels:
[1] = tested on: ragweed pollen-specific T cells of ragweed allergic patients; experiment: Secondary and tertiary T cell proliferation assays of a panel of ragweed allergic patients with synthetic peptides; format: cell-based, human; conditions: for Stimulation of ragweed allergic patient T cells by synthetic peptide (in words): in vitro proliferation assays; for NUMBER POSITIVE (patients with T cell response to peptide) / POSITIVE % (patients whose T cells are stimulated by peptide): positive = T cell proliferative response greater than 2-fold above culture medium control
Method: (§1) Peripheral blood mononuclear cells (PBMC) were purified from 60 ml of heparinized blood from ragweed-allergic patients. PBMC were subsequently treated as described below, although in individual cases, the length of time of cultivation with IL-2 and IL-4 and the specific ragweed proteins and peptides used for stimulation varied. As an example, ten ml of patient 222 PBMC at 10^6/ml were cultured at 37° C. for 7 days in the presence of 20 micrograms aqueous ragweed pollen extract/ml RPMI-1640 supplemented with 5% pooled human AB serum. Viable cells were purified by Ficoll-Hypaque centrifugation and cultured for three weeks at 5 units recombinant human IL-2/ml and 5 units recombinant human IL-4/ml. The resting T cells were then restimulated (secondary) with 20 micrograms aqueous ragweed pollen extract/ml at a density of 2×10^5 cells/ml in the presence of X-irradiated (3500 RADS) autologous PBMC (5×10^5/ml) for three days, purified by Ficoll-Hypaque centrifugation and grown in 5 units IL-2/ml and 5 units IL-4/ml for two weeks. For assay, 2×10^4 resting secondary T cells were restimulated (tertiary) in the presence of 5×10^4 X-irradiated (3500 RADS) autologous PBMC or 2×10^4 autologous Epstein-Barr virus-transformed B cells (20,000 RADS) with various concentrations of allergen or their fragments in a volume of 200 microliters in 96-well round bottom assay plates for 3 days. Each well then received 1 microCurie tritiated (methyl) thymidine for 16 hours. The counts incorporated were collected onto glass fiber filters and processed for liquid scintillation counting. […] Antigens used: IPC aqueous pollen extract (pollen), Hollister-Stier ragweed skin test extract (RWST), ALK cat epithelium skin test extract (CST), affinity 4B5/B7 antibody purified (dialyzed) Amb a I (B7), and chromatographically purified Amb a I and (Amb a I). Medium only control is shown as a line with no symbol. Alternatively, PBMC were sometimes carried only into a secondary assay (as outlined above for a tertiary assay) with 20 micrograms aqueous pollen extract 7 days, followed by culture in 5 units IL-2/ml and 5 units IL-4/ml for 2-3 weeks. […] Secondary and tertiary assays of a panel of ragweed allergic patients were performed using synthetic peptides derived from the sequences of various ragweed pollen proteins. […] Another four peptides (RAE15.6, RAE3.D, RAE28.1, RAE26.15) which are also derived from the sequence of the same three cDNA's could stimulate 35 to 58% of the patients' T cells. One peptide (RAE4) which is derived from the cDNA of IPC Clone 5 could also stimulate 25% of the patients' T cells. […] By this method it is possible to identify novel therapeutic and diagnostics entities for use in the treatment and the diagnosis of ragweed allergy.

[2] = tested on: T cells from patients allergic to ragweed; experiment: T cell proliferation of ragweed allergic patient T cells to ragweed proteins and recombinant lysates (tritiated thymidine); format: cell-based, human
From the text: T cells from patients allergic to ragweed, previously stimulated with a mixed ragweed pollen extract, can recognize and proliferate in response to pollen extract, ragweed skin test reagent (RWST), affinity purified Amb a I protein and crude bacterial lysates containing recombinant Amb a I gene products IA, IB and IC (Table 4). […] The use of crude bacterial lysates as antigens precludes a firm conclusion form the negative responses, since the relative levels of recombinant proteins in lysate have not been determined.
as §1

[3] = tested on: human IgE (ragweed allergic patient sera); experiment: SDS-PAGE Western blot (and ELISA) of ragweed allergic patient IgE binding to pollen, affinity purified and recombinant Amb a I / Amb a II; parameters: key to IgE binding, summarized Western blot data: −: no signal over background; +−: barely discernable over background; +: clearly positive; ++: strongly positive; +++: highly positive
Method: As represented in FIG. 1A, a selected monoclonal antibody (designated 4B5/B7) which recognizes an Amb a I preparation unsubjected to denaturing conditions was used to affinity purify from pollen extract a single protein, which is referred to as affinity purified Amb a I. This was carried out, using known techniques, by producing the desired monoclonal antibody, isolating it in large quantities from ascites and immobilizing it on Sepharose (Pharmacia). Aqueous pollen extract was passed over the monoclonal antibody-containing column and a protein species was eluted.
Furthermore, full-length and truncated cDNAs encoding several members of the Amb a I multigene family, as well as Amb a II, were cloned in-frame into the expression vector pTrc99 (Amann et al. Gene, 69:301-315, (1988)) and transformed into the JM109 host. Expression of recombinant Amb a I and Amb a II protein was induced by 1 mM isopropyl-β-D-thiogalactopyranoside, cells were harvested, lysozyme treated, sonicated and insoluble inclusion bodies recovered by a low speed centrifugation. Recombinant Amb a I and Amb a II protein present in the recovered pellet was solubilized in buffer containing 8M urea, 50 mM Tris HC1 pH8.0, 50 mM NaCl, 1 mM EDTA, 1 mM dithiothreitol, 1 mM phenylmethylsulfonyl fluoride. After solubilization, the crude urea lysate was dialyzed at 4° C. against PBS. […] This antigenic cross-reactivity is consistent with the observed sequence homology of the cDNAs (see FIG. 16).
Comparison of human IgE binding to recombinant Amb a I and Amb a II proteins with anti-peptide and monoclonal anti-Amb a I antibodies have provided data consistent with the conclusion that the N-terminal portion (historically referred to as the β-region) of Amb a IA includes the major IgE eptiope(s).
Affinity purified Amb a I was electrophoresed, Western transferred (Towbin et al., Proc. Natl. Acad. Sci. USA, 76:4350 (1979)) and probed with a variety of antibodies, including IgE from an allergic patient (FIG. 17). In pollen extract Amb a I is not only present as an intact 38-KD species, but also characterized by its component 26KD alpha chains and 12-KD beta chains which are formed by enzymatic cleavage. The intact 38-KD species and the alpha chain are clearly detected using rabbit anti-Amb a I, polyclonal affinity purified anti-RAE 16 and monoclonal anti-Amb a I JBIE3-4 (FIG. 17); RAE 16 peptide has the sequence RTDKDLLENGAIC derived from amino-acids […] of Amb a IB, FIG. 16). Affinity purified Amb a I (partial sequence presented in Table 1) as well as chromatographically purified Amb a II (partial sequence presented in Table 2) are bound on Western blots by these antibodies as well as by patient IgE (FIG. 17). The goat anti-Amb a I polyclonal antibody also binds multiple Amb a I and Amb a II species on a two dimensional Western blot of pollen extract (FIG. 18). The Western blot was performed as outlined below. […]

| Molecule | Stimulation of ragweed allergic patient T cells by synthetic peptide (in words) [1] | NUMBER POSITIVE (patients with T cell response to peptide) [1] | POSITIVE % (patients whose T cells are stimulated by peptide) [1] [%] | other results |
| --- | --- | --- | --- | --- |
| ETRRSLKTSGAYNIIDGCWRGKAD [RAE 24.E] | could not stimulate any | 0 | 0 |  |
| FFPILGGITEVKDNDNSVDFC [RAE 4, synthetic peptide deduced from IPC Clone 5] | stimulates | 7 | 25 | Stimulation of ragweed allergic patient T cells by synthetic peptide (in words) ([1]; listed as RAE4): could be stimulated |
| GFFQVVNNNYDRWGTYA [RAE 26.15] |  | 14 | 58 |  |
| GKADWAENRC [RAE 3.D] |  | 13 | 37 |  |
| LENGAIFVASGVDPVLTPEQ [RAE 28.1] |  | 17 | 52 |  |
| LNQELVVNSDKTIDGRGVK [RAE 45.15] | could not stimulate any | 0 | 0 |  |
| RTDKDLLENGAIC [RAE 16.6] | could not stimulate any | 0 | 0 |  |
| YTVTSDKDDDVANC [RAE 15.6] |  | 7 | 35 |  |
| Amb a IA(t): truncated recombinant Amb a IA, amino acid 70-398, E. coli expressed, used as crude bacterial lysate (protein) DCAQGFGKGTVGGKDGDIYTVTSELDDDVANPKEGTLRFGAAQNRPLWIIFERDMVIRLDKEMVVNSDKTIDGRGAKVEIINAGFTLNGVKNVIIHNINMHDVKVNPGGLIKSNDGPAAPRAGSDGDAISISGSSQIWIDHCSLSKSVDGLVDAKLGTTRLTVSNSLFTQHQFVLLFGAGDENIEDRGMLATVAFNTFTDNVDQRMPRCRHGFFQVVNNNYDKWGSYAIGGSASPTILSQGNRFCAPDERSKKNVLGRHGEAAAESMKWNWRTNKDVLENGAIFVASGVDPVLTPEQSAGMIPAEPGESALSLTSSAGVLSCQPGAPC |  |  |  | Stimulatory response of human T cells (proliferation compared to medium control) ([2]; patient 151 2° (secondary assay)): + (2-4 fold); Stimulatory response of human T cells (proliferation compared to medium control) ([2]; patient 222 2° (secondary assay)): ++ (4-10 fold); Stimulatory response of human T cells (proliferation compared to medium control) ([2]; patient 295 2° (secondary assay)): + (2-4 fold); Stimulatory response of human T cells (proliferation compared to medium control) ([2]; patient 296 2° (secondary assay)): +++ (>10 fold); Stimulatory response of human T cells (proliferation compared to medium control) ([2]; patient 314 2° (secondary assay)): +++ (>10 fold); Stimulatory response of human T cells (proliferation compared to medium control) ([2]; patient 316 2° (secondary assay)): +++ (>10 fold); Stimulatory response of human T cells (proliferation compared to medium control) ([2]; patient 320 2° (secondary assay)): ++ (4-10 fold); Stimulatory response of human T cells (proliferation compared to medium control) ([2]; patient 321 2° (secondary assay)): ++ (4-10 fold); Human IgE binding (in words) ([3]; Western blot (FIG. 17) and/or ELISA, ragweed allergic patient IgE): less well than the full-length Amb a IA; IgE binding, summarized Western blot data ([3]; patient 151): −; IgE binding, summarized Western blot data ([3]; patient 222): +−; IgE binding, summarized Western blot data ([3]; patient 291): +; IgE binding, summarized Western blot data ([3]; patient 295): + |
